In patent US8158088B2, “Extractant compositions for co-extracting cesium and strontium, a method of separating cesium and strontium from an aqueous feed, and calixarene compounds” (Battelle Energy Alliance, LLC, priority 2008, dated 2012):

Legend:
Format in all cases: physicochemical
[1] = Cesium distribution ratio (DCs), equilibrium batch contact of mixed extractant solvent with nitric acid feed
Text: The distribution of cesium and strontium between the first organic phase (the mixed extractant solvent including the dialkyloxycalix[4]arenebenzocrown-6 compound) and the first aqueous phase (aqueous feed) may be determined by conventional techniques. The distribution ratio for strontium (“DSr”) may be calculated as the ratio of organic phase activity to the aqueous phase activity at equilibrium. High values for the DSr indicate that the strontium is present predominantly in the organic phase while low values for the DSr indicate that the strontium is present predominantly in the aqueous phase. Similarly, the distribution ratio for cesium (“DCs”) may be calculated as the ratio of organic phase activity to the aqueous phase activity at equilibrium. High values for the DCs indicate that the cesium is present predominantly in the organic phase while low values for the DCs indicate that the cesium is present predominantly in the aqueous phase.
Distribution ratios (DM=[M]org/[M]aq) were measured by equilibrium batch contacts between the organic and aqueous phases at an organic-to-aqueous phase ratio (O/A) of unity (O/A=1). All distribution ratio measurements were conducted in a temperature controlled water bath at 25±1° C. The aqueous phase was of the appropriate HNO3 concentration, to which trace quantities (typically, less than 10^−7 M each) of the major radionuclides of interest (^137Cs, ^85Sr, ^154Eu, or ^241Am) were added. The organic and aqueous phases were contacted by vortex mixing for 1 minute. All batch contact experiments were performed at ambient temperature (from approximately 20° C. to approximately 25° C.) unless otherwise noted. Following extraction, the samples were centrifuged for 1 minute and the organic and aqueous phases separated by pipet or centrifugation. The distribution ratios (DSr, or DCs) were calculated as the ratio of the appropriate specific activities in the organic and aqueous phases as determined by γ-ray counting (gamma spectroscopy). The counting time was selected to provide less than approximately 1% statistical uncertainty.
(MC-8, MC-8B, MC-10, MC-10B, MC-12, or MC-12B), 0.075 M DtBuCH18C6, 0.75 M Cs-7SB modifier, and 0.003 M TOA in ISOPAR® L were evaluated for their respective abilities to simultaneously extract cesium and strontium from the aqueous feed simulant composition described in Table 2. The cesium and strontium distribution ratios of the mixed extraction solvents were compared to those of the FPEX I process solvent. The cesium extraction performance and strontium extraction performance of each of the mixed extractant solvents was determined using the batch contact flowsheet presented in FIG. 1, where “E1,” “E2,” and “E3” refer to three forward extraction acts: a first extraction act, a second extraction act, and a third extraction act, respectively, and “St1” and “St2” refer to two backward extraction acts: a first strip act and a second strip act, respectively. […] The aqueous feed 2 and the mixed extractant solvent 4 were combined in a vessel 6 to conduct the extraction. Two phases were formed during the extraction: the first organic phase and the first aqueous phase, with the cesium and strontium substantially distributed in the first organic phase.
The cesium and strontium distribution ratios for the mixed extractant solvents 4 were calculated for the first organic phase and are reported in Tables 3 and 4, respectively, as E1, along with the cesium and strontium distribution ratios for the FPEX I process solvent. The cesium and strontium were stripped from the first (and subsequent) organic phase to recover these radionuclides. For the strips or backward extractions, the first (and subsequent) organic phase was contacted with dilute acidic solution 8, which was 0.01 M HNO3. […]

[2] = Solubility of the calixarene in the extractant solvent
[3] = Solvent stability: cesium distribution ratios as a function of contact time with 1.5 M HNO3
Experimental: (§1) The stability of the mixed extractant solvents prepared using dialkyloxycalix[4]arenebenzocrown-6 compounds (MC-8, MC-8B, MC-10, MC-10B, MC-12, or MC-12B) relative to BOBCalixC6 in the FPEX I process solvent was determined. Samples were prepared using each of the dialkyloxycalix[4]arenebenzocrown-6 compounds and contacted with 1.5 M HNO3. The samples included 0.007 M of the respective dialkyloxycalix[4]arenebenzo-crown-6 compound (MC-8, MC-8B, MC-10, MC-10B, MC-12, or MC-12B), 0.075 M DtBuCH18C6, 0.75 M Cs-7SB modifier, and 0.003 M TOA in ISOPAR® L. The stability of the dialkyloxycalix[4]arene-benzocrown-6 based solvents was evaluated by measuring the cesium and strontium distribution ratios as a function of contact time. These cesium and strontium distribution ratios for the mixed extractant solvents are presented in Table 9 and Table 10, respectively, along with the cesium and strontium distribution ratios for the FPEX I process solvent. The symbol “-” is used in Tables 9 and 10 to indicate no data was collected.
(§2) This degradation is likely due to chemical attack or nitration of the BOBCalixC6 in the FPEX I process solvent. […] However, it is difficult to compare the relative extents of degradation. In order to compare the different extractants, the distribution ratio data presented in Tables 9 and 10 were normalized to the values obtained at t=0 days contact. The normalized cesium and strontium distribution ratios for the FPEX I process solvent and the mixed extractant solvents as a function of contact time are presented in FIGS. 2 and 3, respectively.

[4] = Solvent stability: strontium distribution ratios as a function of contact time with 1.5 M HNO3
Experimental: as §1, §2

[5] = contact time 0 days with 1.5 M HNO3, 0.007 M calixarene, 0.075 M DtBuCH18C6, 0.75 M Cs-7SB, 0.003 M TOA in ISOPAR L
[6] = contact time 34 days with 1.5 M HNO3
[7] = contact time 70 days with 1.5 M HNO3
[8] = contact time 278 days with 1.5 M HNO3

precipitation on storage ([2]; 0.05 M MC-8 solvent, room temperature, several months): no observable precipitation
Cesium distribution ratio as a function of contact time [3, 5]: 4.2
Cesium distribution ratio as a function of contact time [3, 6]: 3.2
Cesium distribution ratio as a function of contact time [3, 7]: 3.6
Cesium distribution ratio as a function of contact time [3, 8]: 2.8
Strontium distribution ratio as a function of contact time [4, 5]: 10.5
Strontium distribution ratio as a function of contact time [4, 6]: 7.7
Strontium distribution ratio as a function of contact time [4, 7]: 9.3
Strontium distribution ratio as a function of contact time [4, 8]: 8.0
Structure (SMILES): CCCCCCCCOc1c2cccc1Cc1cccc3c1OCCOCCOc1ccccc1OCCOCCOc1c(cccc1Cc1cccc(c1OCCCCCCCC)C3)C2 [MC-8, 1,3-alternate-25,27-di(octyloxy)calix[4]arenebenzocrown-6]
DCs ([1]; 0.010 M MC-8, contact E1, 1.5 M HNO3, 0.075 M DtBuCH18C6, 0.75 M Cs-7SB, 0.003 M TOA in ISOPAR L): 7.2
DCs ([1]; 0.015 M MC-8, contact E1, 1.5 M HNO3): 13.3
DCs ([1]; 0.020 M MC-8, contact E1, 1.5 M HNO3): 21.5
DCs ([1]; 0.025 M MC-8, contact E1, 1.5 M HNO3): 29.4
cesium distribution ratio ([1]; 0.05 M MC-8 (as printed in text), 1.5 M HNO3): 29
DCs ([1]; 1.0 M HNO3, 20 °C, contact E1, 0.025 M MC-8, 0.075 M DtBuCH18C6, 0.75 M Cs-7SB, 0.003 M TOA in ISOPAR L): 31.0
DCs ([1]; 1.5 M HNO3, 20 °C, contact E1, 0.025 M MC-8): 35.6
DCs ([1]; 2.0 M HNO3, 20 °C, contact E1, 0.025 M MC-8): 39.9
DCs ([1]; 3.0 M HNO3, 20 °C, contact E1, 0.025 M MC-8): 3rd phase
DCs ([1]; 4.0 M HNO3, 20 °C, contact E1, 0.025 M MC-8): 3rd phase
DCs ([1]; 15 °C, contact E1, 1.0 M HNO3 feed, 0.025 M MC-8, 0.075 M DtBuCH18C6, 0.75 M Cs-7SB, 0.003 M TOA in ISOPAR L): 44.5
DCs ([1]; 20 °C, contact E1, 1.0 M HNO3 feed, 0.025 M MC-8): 24.5
DCs ([1]; 25 °C, contact E1, 1.0 M HNO3 feed, 0.025 M MC-8): 15.7
DCs ([1]; 30 °C, contact E1, 1.0 M HNO3 feed, 0.025 M MC-8): 9.9
DCs ([1]; 35 °C, contact E1, 1.0 M HNO3 feed, 0.025 M MC-8): 6.2
DCs ([1]; contact E1, batch contact flowsheet, simulated feed 1.0 M HNO3, 0.025 M MC-8): 34.7
DCs ([1]; contact E2, simulated feed 1.0 M HNO3, 0.025 M MC-8): 29.0
DCs ([1]; contact E3, simulated feed 1.0 M HNO3, 0.025 M MC-8): 21.9
DCs ([1]; contact St1 (strip), 0.025 M MC-8): 0.63
DCs ([1]; contact St2 (strip), 0.025 M MC-8): 0.25
Cesium distribution ratio, contact E1 ([1]; first forward extraction, 1.5 M HNO3 feed simulant, 25 °C, 0.007 M calixarene, 0.075 M DtBuCH18C6, 0.75 M Cs-7SB, 0.003 M TOA in ISOPAR L): 4.2
Cesium distribution ratio, contact St1 ([1]; first strip with 0.01 M HNO3, 35 °C, 0.007 M calixarene solvent): 0.6
Cesium distribution ratio, contact E2 ([1]; second forward extraction, 1.5 M HNO3 feed, 25 °C, 0.007 M calixarene solvent): 1.9
Cesium distribution ratio, contact St2 ([1]; second strip with 0.01 M HNO3, 35 °C, 0.007 M calixarene solvent): 0.2
Cesium distribution ratio, contact E3 ([1]; third forward extraction, 1.5 M HNO3 feed, 25 °C, 0.007 M calixarene solvent): 1.5
solubility in the mixed extractant solvent ([2]; MC-8 varied from 0.01 M to 0.05 M in 0.075 M DtBuCH18C6, 0.75 M Cs-7SB, 0.003 M TOA in ISOPAR L): soluble at these increased concentrations
